Experimental data from PubChem BioAssay (NCI).
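1) Cells in 96-well plates. 2) Compound, 48 h, 5 concentrations. 3) Linear interpolation between surrounding doses. 4) Unreached endpoint = highest concentration. TGI: total growth inhibition.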

Assays:
Assay in all cases: DTP human tumour cell line panel, 48 h
[1] = tested on: HT29 colon
[2] = tested on: HCC-2998 colon
[3] = tested on: COLO 205 colon
[4] = tested on: OVCAR-5 ovarian
[5] = tested on: DU-145 prostate
[6] = tested on: RXF 393 renal
[7] = tested on: SN12C renal
[8] = tested on: TK-10 renal
[9] = tested on: 786-0 renal
[10] = tested on: SR leukemia
[11] = tested on: BT-549 breast
[12] = tested on: MALME-3M melanoma
[13] = tested on: CCRF-CEM leukemia
[14] = tested on: PC-3 prostate
[15] = tested on: ACHN renal
[16] = tested on: HCT-15 colon
[17] = tested on: OVCAR-8 ovarian
[18] = tested on: NCI-H226 lung
[19] = tested on: IGROV1 ovarian
[20] = tested on: HCT-116 colon
[21] = tested on: A498 renal
[22] = tested on: UACC-257 melanoma
[23] = tested on: EKVX NSCLC
[24] = tested on: SK-MEL-5 melanoma
[25] = tested on: HOP-92 NSCLC
[26] = tested on: SF-295 CNS
[27] = tested on: SK-MEL-28 melanoma
[28] = tested on: OVCAR-3 ovarian
[29] = tested on: HL-60(TB) leukemia
[30] = tested on: SF-539 CNS
[31] = tested on: T-47D breast
[32] = tested on: UO-31 renal
[33] = tested on: LOX IMVI melanoma
[34] = tested on: NCI-H23 lung
[35] = tested on: SNB-19 CNS
[36] = tested on: SK-OV-3 ovarian
[37] = tested on: SW-620 colon
[38] = tested on: HOP-62 NSCLC
[39] = tested on: K-562 leukemia
[40] = tested on: MCF7 breast
[41] = tested on: SNB-75 CNS
[42] = tested on: NCI-H460 lung
[43] = tested on: M14 melanoma
[44] = tested on: A549 NSCLC
[45] = tested on: KM12 colon
[46] = tested on: OVCAR-4 ovarian
[47] = tested on: MDA-MB-435
[48] = tested on: SF-268 CNS
[49] = tested on: UACC-62 melanoma
[50] = tested on: HS 578T breast
[51] = tested on: RPMI-8226 leukemia
[52] = tested on: NCI/ADR-RES ovarian
[53] = tested on: NCI-H522 lung
[54] = tested on: U251 CNS
[55] = tested on: CAKI-1 renal
[56] = tested on: MDA-N
[57] = tested on: MDA-MB-231 breast
[58] = tested on: SK-MEL-2 melanoma
[59] = tested on: MOLT-4 leukemia
[60] = tested on: DMS 273 small cell lung
[61] = tested on: M19-MEL melanoma
[62] = tested on: LXFL 529 NSCLC
[63] = tested on: SNB-78 CNS
[64] = tested on: DMS 114 small cell lung
[65] = tested on: DLD-1 colon
[66] = tested on: XF 498 CNS

With `OCC(S)CS.[Bi]` (stereo not given) the TGI [1] was 46.4 µM, the TGI [2] was 27.5 µM and the TGI [3] was 30 µM. The TGI [4] was 42.5 µM, the TGI [5] was 68.5 µM and the TGI [6] was 26.2 µM. For the same compound, the TGI [7] was 37.9 µM, the TGI [8] was 32.4 µM and the TGI [9] was 39.3 µM. It also gave a TGI [10] of over 100 µM, a TGI [11] of 27.8 µM and a TGI [12] of 17.6 µM. For the same compound, the TGI [13] was 5.22 µM, the TGI [14] was 27.3 µM and the TGI [15] was 30.6 µM. The TGI [16] was 50.7 µM, the TGI [17] was 52.3 µM and the TGI [18] was over 100 µM. It also gave a TGI [19] of 54.9 µM, a TGI [20] of 44.4 µM and a TGI [21] of 56.3 µM. It also gave a TGI [22] of 27.9 µM, a TGI [23] of 45.4 µM and a TGI [24] of over 100 µM. For the same compound, the TGI [25] was 44.6 µM, the TGI [26] was over 100 µM and the TGI [27] was 28.3 µM. For the same compound, the TGI [28] was 24.7 µM, the TGI [29] was 46.4 µM and the TGI [30] was over 100 µM. The TGI [31] was 31.5 µM, the TGI [32] was 34.1 µM and the TGI [33] was over 100 µM. It also gave a TGI [34] of 52.2 µM, a TGI [35] of 37.3 µM and a TGI [36] of over 100 µM. The TGI [37] was over 100 µM, the TGI [38] was 50.9 µM and the TGI [39] was over 100 µM. It also gave a TGI [40] of over 100 µM, a TGI [41] of 26.8 µM and a TGI [42] of over 100 µM. It also gave a TGI [43] of 29.5 µM, a TGI [44] of over 100 µM and a TGI [45] of 46.2 µM. For the same compound, the TGI [46] was 69.2 µM, the TGI [47] was 35.6 µM and the TGI [48] was 28.4 µM. For the same compound, the TGI [49] was 38.5 µM, the TGI [50] was 53.5 µM and the TGI [51] was 28.3 µM. The TGI [52] was over 100 µM, the TGI [53] was 12.9 µM and the TGI [54] was 40.2 µM. It also gave a TGI [55] of 24.9 µM, a TGI [56] of 34.4 µM and a TGI [57] of 43.2 µM. It also gave a TGI [58] of 30 µM.
`CC(=O)c1c(O)cc(O)c(-c2c(C)cc(O)c3c2C(=O)c2cccc(O)c2C3=O)c1O` was tested, and the TGI [1] was 31.5 µM, the TGI [4] was 41.5 µM and the TGI [5] was 30.2 µM. The TGI [7] was 36 µM, the TGI [8] was 35.6 µM and the TGI [9] was 31.7 µM. It also gave a TGI [10] of 53.8 µM, a TGI [11] of 35.3 µM and a TGI [12] of 30.6 µM. It also gave a TGI [14] of 30.6 µM, a TGI [15] of 25.5 µM and a TGI [16] of 28.6 µM. The TGI [17] was 49.5 µM, the TGI [18] was 58.1 µM and the TGI [19] was 29.8 µM. For the same compound, the TGI [20] was 30 µM, the TGI [21] was 29.1 µM and the TGI [22] was 40 µM. It also gave a TGI [23] of 31.9 µM, a TGI [25] of 26.1 µM and a TGI [26] of 26.9 µM. The TGI [59] was 38.5 µM, the TGI [27] was 73.5 µM and the TGI [28] was 56.2 µM. The TGI [29] was 79.7 µM, the TGI [30] was 30.3 µM and the TGI [31] was 22.7 µM. For the same compound, the TGI [32] was 27.9 µM, the TGI [33] was 27.4 µM and the TGI [35] was 39.1 µM. For the same compound, the TGI [36] was 27.4 µM, the TGI [37] was 36.8 µM and the TGI [38] was 40.5 µM. For the same compound, the TGI [39] was 62.6 µM, the TGI [40] was 29.8 µM and the TGI [41] was 38.1 µM. The TGI [42] was 31.7 µM, the TGI [43] was 51.4 µM and the TGI [44] was 34.2 µM. It also gave a TGI [45] of 33.5 µM, a TGI [46] of 28.5 µM and a TGI [47] of 34.5 µM. It also gave a TGI [48] of 36.8 µM, a TGI [49] of 29.1 µM and a TGI [50] of 34.6 µM. The TGI [51] was 35.5 µM, the TGI [52] was 42.2 µM and the TGI [53] was 24.7 µM. It also gave a TGI [54] of 27.2 µM, a TGI [56] of 30.8 µM and a TGI [57] of 41.1 µM. For the same compound, the TGI [58] was 34.2 µM.
In the case of `N#CNC1=NCCC(=O)N1CCc1c[nH]c2ccccc12`, the TGI [1] is reported as over 100 µM, the TGI [2] is reported as over 100 µM and the TGI [3] is reported as over 100 µM. It also gave a TGI [6] of over 100 µM, a TGI [7] of over 100 µM and a TGI [8] of over 100 µM. For the same compound, the TGI [60] was over 100 µM, the TGI [9] was over 100 µM and the TGI [10] was over 100 µM. For the same compound, the TGI [13] was over 100 µM, the TGI [16] was over 100 µM and the TGI [17] was over 100 µM. For the same compound, the TGI [18] was over 100 µM, the TGI [19] was over 100 µM and the TGI [61] was over 100 µM. For the same compound, the TGI [20] was over 100 µM, the TGI [22] was over 100 µM and the TGI [23] was over 100 µM. For the same compound, the TGI [24] was over 100 µM, the TGI [62] was over 100 µM and the TGI [26] was over 100 µM. It also gave a TGI [59] of over 100 µM, a TGI [27] of over 100 µM and a TGI [28] of over 100 µM. For the same compound, the TGI [29] was over 100 µM, the TGI [30] was over 100 µM and the TGI [63] was over 100 µM. The TGI [64] was over 100 µM, the TGI [32] was over 100 µM and the TGI [33] was over 100 µM. The TGI [65] was over 100 µM, the TGI [34] was over 100 µM and the TGI [35] was over 100 µM. The TGI [36] was over 100 µM, the TGI [37] was over 100 µM and the TGI [38] was over 100 µM. It also gave a TGI [39] of over 100 µM, a TGI [41] of over 100 µM and a TGI [43] of over 100 µM. The TGI [66] was over 100 µM, the TGI [44] was over 100 µM and the TGI [45] was over 100 µM. For the same compound, the TGI [46] was over 100 µM, the TGI [48] was over 100 µM and the TGI [49] was over 100 µM. For the same compound, the TGI [51] was over 100 µM.
Work on `O=C1C=CC(=O)c2c(O)c(N(CCCl)CCCl)c(Cl)c(O)c21` yielded a TGI [1] of over 8.53 µM, a TGI [2] of over 10 µM and a TGI [3] of 5.57 µM. It also gave a TGI [4] of over 9.1 µM, a TGI [5] of over 10 µM and a TGI [6] of over 6.69 µM. The TGI [7] was over 7.71 µM, the TGI [8] was 4.93 µM and the TGI [9] was over 7.67 µM. For the same compound, the TGI [10] was over 10 µM, the TGI [11] was over 7.26 µM and the TGI [12] was 5.79 µM. The TGI [13] was over 7.38 µM, the TGI [14] was over 8.55 µM and the TGI [15] was 5.6 µM. The TGI [16] was over 8.58 µM, the TGI [17] was 6.9 µM and the TGI [18] was over 10 µM. For the same compound, the TGI [19] was over 7.99 µM, the TGI [20] was 5.68 µM and the TGI [21] was over 9.53 µM. The TGI [22] was 5.23 µM, the TGI [23] was over 10 µM and the TGI [24] was 7.41 µM. The TGI [25] was 5.78 µM, the TGI [26] was over 10 µM and the TGI [59] was over 10 µM. It also gave a TGI [27] of over 6.98 µM, a TGI [28] of 7.25 µM and a TGI [29] of over 10 µM. It also gave a TGI [30] of over 7.9 µM, a TGI [31] of 6.57 µM and a TGI [32] of over 7.1 µM. For the same compound, the TGI [33] was 6.25 µM, the TGI [34] was over 8.05 µM and the TGI [35] was over 10 µM. It also gave a TGI [36] of over 10 µM, a TGI [37] of 6.56 µM and a TGI [38] of over 10 µM. The TGI [39] was over 10 µM, the TGI [40] was over 8.33 µM and the TGI [41] was over 10 µM. For the same compound, the TGI [42] was over 10 µM, the TGI [43] was 6.06 µM and the TGI [44] was over 10 µM. For the same compound, the TGI [45] was over 9.63 µM, the TGI [46] was 6.24 µM and the TGI [47] was 5.83 µM. The TGI [48] was over 8.4 µM, the TGI [49] was over 7.71 µM and the TGI [50] was over 10 µM. For the same compound, the TGI [51] was over 10 µM, the TGI [52] was over 10 µM and the TGI [53] was 6.01 µM. For the same compound, the TGI [54] was over 9.09 µM, the TGI [55] was 6.51 µM and the TGI [56] was 5.79 µM. It also gave a TGI [57] of 6.75 µM and a TGI [58] of over 7.91 µM.
